Experimental data: patent US12011444B2, “N-substituted indole derivatives as PGE2 receptor modulators” (Idorsia Pharmaceuticals Ltd, priority 2015, dated 2024)

Tests used:
PTGER2 (EP2) = PTGER2 (EP2) (Homo sapiens (Human), UniProt P43116); experiment: hEP2 b-arrestin assay (PathHunter HEK 293 PTGER2 b-arrestin cells); format: cell-based
Summary of the method: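 HEK293 cells expressing ProLink-tagged EP2 and EA-fused β-arrestin 2 (enzyme fragment complementation) were seeded 24 h, pre-incubated with compound 15 min at 37 °C, then stimulated with 5 μM PGE2 (final) for 120 min.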

PTRGER4 (EP4) = PTRGER4 (EP4) (Homo sapiens (Human), UniProt P35408); experiment: hEP4 b-arrestin assay (PathHunter HEK 293 PTGER4 b-arrestin cells); format: cell-based
Chain of PTRGER4 (EP4) (P35408 whole entry, looked up, the tested form may be a part): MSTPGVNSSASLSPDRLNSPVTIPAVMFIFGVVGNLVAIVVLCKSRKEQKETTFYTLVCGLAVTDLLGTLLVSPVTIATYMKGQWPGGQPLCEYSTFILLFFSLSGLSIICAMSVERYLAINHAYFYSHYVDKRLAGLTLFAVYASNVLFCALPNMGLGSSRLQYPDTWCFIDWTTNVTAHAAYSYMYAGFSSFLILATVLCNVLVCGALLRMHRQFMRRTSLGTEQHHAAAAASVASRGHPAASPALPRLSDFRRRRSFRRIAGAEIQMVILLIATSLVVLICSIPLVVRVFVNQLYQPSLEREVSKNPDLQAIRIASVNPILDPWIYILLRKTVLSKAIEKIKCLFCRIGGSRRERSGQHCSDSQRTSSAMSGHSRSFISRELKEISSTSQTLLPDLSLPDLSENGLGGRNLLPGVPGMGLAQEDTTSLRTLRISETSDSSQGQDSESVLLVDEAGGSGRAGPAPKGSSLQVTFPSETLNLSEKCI
Summary of the method: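 Stably transfected HEK293 cells carrying EP4–ProLink and β-arrestin 2–EA (β-gal fragment complementation), pre-incubated with compound 15 min at 37 °C, then stimulated with PGE2 (20 nM final) for 120 min at 37 °C. Chemiluminescence read after 1 h detection reagent at room temperature; activity per concentration expressed as percent of DMSO control.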

[1] = hEP2 b-arrestin assay (values without asterisk)
[2] = hEP4 b-arrestin assay (values without asterisk)
[3] = antagonistic activity on hEP2, mean where measured multiple times
[4] = antagonistic activity on hEP4, mean where measured multiple times

Chain of PTGER2 (EP2) (P43116 whole entry, the tested form may be a part): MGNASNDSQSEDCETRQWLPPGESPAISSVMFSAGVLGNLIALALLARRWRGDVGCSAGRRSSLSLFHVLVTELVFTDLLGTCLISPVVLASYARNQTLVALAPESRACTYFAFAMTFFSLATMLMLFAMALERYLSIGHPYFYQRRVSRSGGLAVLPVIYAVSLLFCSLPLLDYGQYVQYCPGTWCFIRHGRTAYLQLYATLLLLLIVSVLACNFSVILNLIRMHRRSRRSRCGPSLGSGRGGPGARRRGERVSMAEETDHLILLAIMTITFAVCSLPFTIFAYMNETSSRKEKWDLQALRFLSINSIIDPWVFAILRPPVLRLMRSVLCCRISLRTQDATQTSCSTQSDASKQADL

| Structure (SMILES) | IC50 (PTGER2 (EP2); [1]) [nM] | IC50 (PTRGER4 (EP4); [2]) [nM] | IC50 (PTGER2 (EP2); [3]) [nM] | IC50 (PTRGER4 (EP4); [4]) [nM] |
| --- | --- | --- | --- | --- |
| CCOc1cc(-c2cc(NCCn3c(C#N)cc4c(OC)ccc(F)c43)ncn2)sc1C(=O)NS(=O)(=O)c1ccccc1 [Example 814, N-(5-{6-[2-(2-Cyano-7-fluoro-4-methoxy-indol-1-yl)-ethylamino]-pyrimidin-4-yl}-3-ethoxy-thiophene-2-carbonyl)-benzenesulfonamide] | 7 | 2 | – | – |
| Cc1ccc(F)c2c1cc(C)n2CCNc1cc(-c2ccc3ccncc3c2)ncn1 [compound 357] | – | – | 54 | 272 |
| CCOc1cc(-c2cc(NCCn3c(C)cc4cc(C)cc(F)c43)ncn2)sc1C(=O)O [compound 228] | – | – | 4 | 35 |
| CCOc1cc(-c2cc(NCCn3c(C#N)cc4c(OC)ccc(F)c43)ncn2)sc1C(=O)NCCO [Example 1026, 5-{6-[2-(2-Cyano-7-fluoro-4-methoxy-indol-1-yl)-ethylamino]-pyrimidin-4-yl}-3-ethoxy-thiophene-2-carboxylic acid (2-hydroxy-ethyl)-amide] | 21 | 1 | – | – |
| COC(=O)c1ccc2[nH]c(-c3cc(NCCn4c(C#N)cc5c(OC)ccc(F)c54)ncn3)cc2c1 [Example 962, 2-{6-[2-(2-Cyano-7-fluoro-4-methoxy-indol-1-yl)-ethylamino]-pyrimidin-4-yl}-1H-indole-5-carboxylic acid methyl ester] | 3 | 11 | – | – |
| COc1ccc(F)c2c1cc(C)n2CCNc1cc(-c2csc(CO)c2)ncn1 [compound 101] | – | – | 37 | 548 |
| COc1cc(-c2cc(NCCn3c(C)cc4c(C)ccc(F)c43)ncn2)cc(C)c1C(=O)O [compound 286] | – | – | 31 | 268 |
| CCOc1cc(-c2cc(NCCn3c(C)cc4c(F)ccc(Cl)c43)ncn2)ccc1C(=O)O [compound 152, 4-{6-[2-(7-Chloro-4-fluoro-2-methyl-indol-1-yl)-ethylamino]-pyrimidin-4-yl}-2-ethoxy-benzoic acid] | – | – | 3 | 786 |
| COc1cc(F)c(F)c2c1cc(C)n2CCNc1cc(-c2ccc3cc[nH]c3c2)ncn1 [compound 92, [2-(6,7-Difluoro-4-methoxy-2-methyl-indol-1-yl)-ethyl]-[6-(1H-indol-6-yl)-pyrimidin-4-yl]-amine] | – | – | 48 | 358 |
| COc1ccc(F)c2c1cc(C)n2CCNc1cc(-c2ccc(C(=O)O)c(C#N)c2)ncn1 [Example 888, 2-Cyano-4-{6-[2-(7-fluoro-4-methoxy-2-methyl-indol-1-yl)-ethylamino]-pyrimidin-4-yl}-benzoic acid] | 41 | 472 | – | – |
| CCNc1cc(-c2cc(NCCn3c(C)cc4c(OC)cccc43)ncn2)cc(Cl)c1C(=O)O [compound 362, 2-Chloro-6-ethylamino-4-{6-[2-(4-methoxy-2-methyl-indol-1-yl)-ethylamino]-pyrimidin-4-yl}-benzoic acid] | – | – | 3 | 281 |
| Cc1ccc(F)c2c1cc(C)n2CCNc1cc(-c2ccc3c(c2)CCN3)ncn1 [compound 11, [6-(2,3-Dihydro-1H-indol-5-yl)-pyrimidin-4-yl]-[2-(7-fluoro-2,4-dimethyl-indol-1-yl)-ethyl]-amine] | – | – | 20 | 124 |
| CNc1cc(-c2cc(NCCn3c(C)cc4c(OC)cc(F)cc43)ncn2)ccc1C(=O)O [Example 1017, 4-{6-[2-(6-Fluoro-4-methoxy-2-methyl-indol-1-yl)-ethylamino]-pyrimidin-4-yl}-2-methylamino-benzoic acid] | 7 | 31 | – | – |
| Cc1ccc(Cl)c2c1cc(C)n2CCNc1cc(-c2ccc3[nH]c(C(=O)O)cc3c2)ncn1 [compound 201] | – | – | 232 | 389 |
| COc1cccc2c1cc(C)n2CCNc1cc(-c2ccc(C(=O)O)c(C3CC3)c2)ncn1 [compound 175, 2-Cyclopropyl-4-{6-[2-(4-methoxy-2-methyl-indol-1-yl)-ethylamino]-pyrimidin-4-yl}-benzoic acid] | – | – | 6 | 529 |
| Cc1cc(F)cc2c1cc(C)n2CCNc1cc(-c2ccc3[nH]c(C(F)(F)F)nc3c2)ncn1 [compound 297] | – | – | 539 | 814 |
| CCOc1cc(-c2cc(NCCn3c(C)cc4c(Cl)ccc(F)c43)ncn2)sc1C(=O)O [compound 240] | – | – | 2 | 10 |
| CCOc1cc(-c2cc(NCCn3c(C)cc4c(C)ccc(F)c43)ncn2)ccc1NCC(=O)O [Example 877, (2-Ethoxy-4-{6-[2-(7-fluoro-2,4-dimethyl-indol-1-yl)-ethylamino]-pyrimidin-4-yl}-phenylamino)-acetic acid] | 5 | 34 | – | – |
| Cc1ccc(F)c2c1cc(C)n2CCNc1cc(-c2ccc(S(N)(=O)=O)c(C(F)(F)F)c2)ncn1 [compound 379] | – | – | 63 | 354 |
| COc1ccc(F)c2c1cc(C#N)n2CCNc1cc(-c2cc3ccc(C(=O)O)cc3[nH]2)ncn1 [Example 1076, 2-(6-((2-(2-Cyano-7-fluoro-4-methoxy-1H-indol-1-yl)ethyl)amino)pyrimidin-4-yl)-1H-indole-6-carboxylic acid] | 6 | 39 | – | – |
| Cc1c(F)c(F)cc2c1cc(C#N)n2CCNc1cc(-c2cc(C(F)(F)F)c(C(=O)O)s2)ncn1 [Example 857, 5-{6-[2-(2-Cyano-5,6-difluoro-4-methyl-indol-1-yl)-ethylamino]-pyrimidin-4-yl}-3-trifluoromethyl-thiophene-2-carboxylic acid] | 58 | 212 | – | – |
| CCOc1cc(-c2cc(NCCn3c(C)cc4c(OC)ccc(F)c43)ncn2)ccc1-c1nc(C)c(C)o1 [Example 848, {6-[4-(4,5-Dimethyl-oxazol-2-yl)-3-ethoxy-phenyl]-pyrimidin-4-yl}-[2-(7-fluoro-4-methoxy-2-methyl-indol-1-yl)-ethyl]-amine] | 20 | 321 | – | – |
| COc1cccc2c1cc(C)n2CCNc1cc(-c2ccc(-c3c[nH]cn3)cc2)ncn1 [compound 77, {6-[4-(1H-Imidazol-4-yl)-phenyl]-pyrimidin-4-yl}-[2-(4-methoxy-2-methyl-indol-1-yl)-ethyl]-amine] | – | – | 8 | 89 |
| COc1cccc2c1cc(C)n2CCNc1cc(-c2ccc3[nH]c(C)nc3c2)ncn1 [compound 352] | – | – | 49 | 481 |
| COc1ccc(F)c2c1cc(C#N)n2CCNc1cc(-c2ccnc(N3CCCCC3)c2)ncn1 [Example 976, 7-Fluoro-4-methoxy-1-{2-[6-(3,4,5,6-tetrahydro-2H-[1,2′]bipyridinyl-4′-yl)-pyrimidin-4-ylamino]-ethyl}-1H-indole-2-carbonitrile] | 194 | 317 | – | – |
| CCCSc1cc(-c2cc(NCCn3c(C)cc4c(C)ccc(Cl)c43)ncn2)ccc1C(=O)O [compound 334, 4-{6-[2-(7-Chloro-2,4-dimethyl-indol-1-yl)-ethylamino]-pyrimidin-4-yl}-2-propylsulfanyl-benzoic acid] | – | – | 28 | 603 |
| CCc1cc(-c2cc(NCCn3c(C)cc4c(C)cc(F)cc43)ncn2)ccc1C(=O)O [compound 219] | – | – | 41 | 454 |
| CCOc1cc(-c2cc(NCCn3c(C)cc4c(F)c(F)ccc43)ncn2)ccc1C(=O)O [compound 278] | – | – | 9 | 999 |
